ChEMBL document CHEMBL1145687, “Cochliobolic acid, a novel metabolite produced by Cochliobolus lunatus, inhibits binding of TGF-alpha to the EGF receptor in a SPA assay” (J Nat Prod, 1997)

Biological target: Epidermal growth factor receptor (Homo sapiens, UniProt P00533)
Test: Displacement of [125I]-TGFalpha from human EGFR in human A431 cell membrane by SPA
Format: cell membranes, A-431

Sequence of Epidermal growth factor receptor (P00533 whole entry): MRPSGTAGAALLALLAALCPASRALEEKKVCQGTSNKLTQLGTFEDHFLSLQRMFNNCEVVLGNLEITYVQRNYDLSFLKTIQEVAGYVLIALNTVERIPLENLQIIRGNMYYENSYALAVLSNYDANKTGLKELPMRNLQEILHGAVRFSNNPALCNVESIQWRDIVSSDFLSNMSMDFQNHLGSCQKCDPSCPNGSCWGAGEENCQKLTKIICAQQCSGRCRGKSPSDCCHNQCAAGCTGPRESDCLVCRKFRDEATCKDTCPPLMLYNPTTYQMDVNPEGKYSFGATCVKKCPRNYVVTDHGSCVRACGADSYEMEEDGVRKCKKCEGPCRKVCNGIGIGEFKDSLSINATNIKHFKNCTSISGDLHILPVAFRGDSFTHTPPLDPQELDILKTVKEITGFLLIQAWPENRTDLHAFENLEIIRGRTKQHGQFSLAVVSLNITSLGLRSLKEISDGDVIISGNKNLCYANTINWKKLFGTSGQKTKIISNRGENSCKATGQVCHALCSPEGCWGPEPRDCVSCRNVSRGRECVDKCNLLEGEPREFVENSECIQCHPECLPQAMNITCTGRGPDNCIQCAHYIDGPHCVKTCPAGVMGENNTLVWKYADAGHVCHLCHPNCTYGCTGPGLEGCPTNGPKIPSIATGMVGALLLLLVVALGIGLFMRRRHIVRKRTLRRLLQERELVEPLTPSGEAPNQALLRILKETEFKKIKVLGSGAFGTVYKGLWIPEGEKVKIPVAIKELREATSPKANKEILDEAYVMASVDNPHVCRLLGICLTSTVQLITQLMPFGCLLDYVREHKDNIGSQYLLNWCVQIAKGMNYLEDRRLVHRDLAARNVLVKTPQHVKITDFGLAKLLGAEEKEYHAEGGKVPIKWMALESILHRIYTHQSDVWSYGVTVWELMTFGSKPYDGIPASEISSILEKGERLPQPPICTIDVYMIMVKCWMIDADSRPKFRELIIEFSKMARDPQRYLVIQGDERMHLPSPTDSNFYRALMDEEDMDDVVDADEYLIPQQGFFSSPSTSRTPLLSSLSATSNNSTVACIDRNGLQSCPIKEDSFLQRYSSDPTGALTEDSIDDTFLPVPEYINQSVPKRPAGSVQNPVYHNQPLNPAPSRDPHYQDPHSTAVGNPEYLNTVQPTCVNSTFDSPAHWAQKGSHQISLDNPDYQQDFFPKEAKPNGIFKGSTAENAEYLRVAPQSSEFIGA

IC50: 1.6 µM
Structure (SMILES): CCC(C)/C=C/C(=O)C(=O)/C=C/C=C/C=C/C=C/C=C/C=C/[C@@H]1C[C@@H](O)[C@H](C(=O)O)O1 (stereo partly specified) [COCHLIOBOLIC ACID]
